Source: patent US20030162187A1, “Method of detecting sexual differentiation disruptor” (priority 1999, published 2003)

System: Qurt medaka
Assay: Detection of sexual differentiation-disrupting activity: eggs bred in test solution, genotypic sex by pigment, phenotypic sex by RT-PCR of female-specific Gene 5
Format: in vivo, medaka (Oryzias latipes)
Details: fries hatched from eggs treated with 1 ppb 17 β-estradiol
Experimental: Pairs of mature Qurt medakas each consisting of one male and one female were bred in 3 L of green water (purified water containing chlorella from green algae) at 25° C. under conditions of a light period for 14 hours and a dark period for 10 hours. They were fed with TetraMin three to five times a day setting the amount of TetraMin such that it was consumed within three to five minutes,;and then spawned. Eggs resulted from five pairs were placed in a Petri dish immediately after spawning, separated each other using tweezers in tap water from which chlorine had been removed and washed. The water was replaced by a 1 -ppb 17 β-estradiol (E2) aqueous solution containing 0.1% dimethyl sulfoxide. The mixture was dispensed into wells of 96-well round bottom microplate (#3797, Corning) which had been extensively washed with ultrapure water such that each well contained one egg. After covering with a lid, the microplate was incubated in an incubator at 25° C. On the third day from the start of incubation, males and females were distinguished by examining the yellow pigment which is expressed in a male-specific manner as autofluorescence using a fluorescence microscope (Nikon) The incubation was further continued, and fries then hatched on the 7th to 9th day after spawning. Fries were collected on the 12th day after spawning (the 3rd to 5th day after hatching), then soaked in RNAlater (#7021, Ambion) and stored at −80° C. RNAs were extracted from the fries using StrataPrep Total RNA Miniprep Kit (#400711, Stratagene). The test samples were soaked in a lysis solution attached to the kit, and homogenized in 1.5 -mL tubes using a pellet mixer (Urin Seisakusho). Then, extraction was completed according to the manual attached to the kit. The extracted RNAs were subjected to TaKaRa One Step RNA PCR Kit (AMV) (Takara Shuzo). 1st PCRs were carried out using a pair of primers F1 (SEQ ID NO: 30) and R1 (SEQ ID NO: 31) which is used to amplify a region of 729 bp in Gene 5 (SEQ ID NO: 5), a gene expressed in a female-specific manner. […]

For `C[C@]12CC[C@@H]3c4ccc(O)cc4CC[C@H]3[C@@H]1CC[C@@H]2O` [17 β-estradiol], the “genotypic females for which expression of Gene 6 was not observed” value was “two out of the five”, the “genotypic males for which expression of Gene 5 was observed” value was “two out of the five” and the “sexual differentiation (genotypic vs phenotypic sex)” value was “the sexual differentiation was disrupted”.
